The record followed here is a melting point compilation (Tetko et al.; mined from patent text by program, amines drawn as free bases though some values may be those of a salt).

On to `COc1c(O)c(OC)c2c(=O)cc(-c3ccc(O)cc3)oc2c1OC`, for which the melting point lay within 266 to 268 °C.

Consider `CC(=O)OCCCNc1nnc(NCCCOC(C)=O)c2c1C(=O)c1ccccc1C2=O`, for which the melting point lay within 142 to 145 °C.

As for `CC(C)c1c(CO)c(-c2ccc(F)cc2)n2ccccc12`, the melting point lay within 94 to 95 °C.

In turn, `O=C(O)c1cc(OCCCOc2ccccc2-c2ccccc2)cc(OCCCOc2ccccc2-c2ccccc2)c1` showed a melting point of 110 to 113 °C.

For the compound `CCCCCCCCCCCCCCCCN(C)S(=O)(=O)c1ccc(Cl)c([N+](=O)[O-])c1`, the melting point lay within 74 to 75 °C.

`COc1cc2c(cc1N1CCN(C)CC1)N(C(=O)c1ccc(-c3ccc(-c4noc(C)n4)cc3C)cc1)CC2` came in with a melting point of 213 to 214 °C.

As for `CCOC(=O)C1[C@@H]2[C@@H](O)[C@@H]3O[C@H](c4ccc(F)cc4F)OC[C@H]3O[C@H]12` (stereo partly specified), the melting point lay within 130 to 133 °C.

The compound `CC12CCC(=O)C=C1CCC1C2CCC2(C)C(CO)CCC12` (stereo unspecified) registered a melting point of 151 °C.

Compound `CCCCc1c2c(nc3ccccc13)-c1cc3c(c(=O)n1C2)COC(=O)CC3(O)CC` (stereo unspecified) showed a melting point of 220 to 221 °C.

Take `Cc1cccc2[nH]c(=O)n3ccnc3c12`: the melting point fell in the range of 308 to 310 °C.

In turn, `COC(=O)C(=O)c1ccc(OCCOc2ccc(-c3ccccc3)cc2)cc1` registered a melting point of 143 to 145 °C.

With `CSC(=NS(=O)(=O)c1cccnc1)SC`, the melting point is 115 to 118 °C.

On to `CCCCCCCc1ccc(OC(=O)c2ccc3c(c2N)C(=O)c2ccc(C)c([N+](=O)[O-])c2C3=O)cc1`, for which the melting point lay in the range of 257 to 259 °C.

In the case of `CSC(Nc1cccc(CNC(=O)OC(C)(C)C)c1)=C(C#N)C#N`, the melting point lay within 150 to 151 °C.

In turn, `Cc1[nH]c(Cl)c(C#N)c1SC(F)(Cl)Cl` had a melting point of 187 °C.

Turning to `O=C(NOCC(=O)N1CCCC1C(=O)O)NN1CCCC1C(=O)O` (stereo unspecified), the melting point lay within 157 to 160 °C.

Take `Cc1ccc(-n2nc(C#N)cc2-c2ccc(S(C)(=O)=O)cc2)cc1Cl`: the melting point is 174 to 176 °C.

The compound `O=C(/C=C/c1ccc(C(F)(F)F)cc1)Nc1ccc2c(c1)NCC(CO)C2` (stereo unspecified) gave a melting point of 176 to 179 °C.

As to `O=C1c2ccccc2C(=O)N1CCCOc1cccc(CN2CCOCC2)c1`, the melting point lay within 90 to 93 °C.

Regarding `CCn1c2cc(C)ccc2c2c3ccccc3ccc21`, the melting point was 123 to 124 °C.

Compound `O=C1CCC(=O)N1Cc1nc2sc3c(c2c(-c2ccc(Cl)cc2)c1Cl)CCNC3` returned a melting point of 230 to 231 °C.

On to `CCNc1nc(Oc2ccccc2)nc2nc(-c3ccco3)nn12`, for which the melting point is 127 to 129 °C.

On to `CCCCc1ncc(/C=C(\Cc2cccs2)C(=O)O)n1Cc1ccccc1C#N`, for which the melting point is 210 to 212 °C.

For the compound `Cc1noc(NS(=O)(=O)c2c(C(=O)c3ccc4c(c3)OCO4)sc3ncccc23)c1Cl`, the melting point was 75 to 90 °C.

Regarding `C=C/C=C/CCOC(=O)c1cc(CBr)cc(CBr)c1`, the melting point lay within 50 to 52 °C.

Turning to `CC(=O)c1ccc2c(c1)CCCS2`, the melting point lay within 49.5 to 50.5 °C.

On to `O=C(O)CCCS(=O)(=O)c1ccccc1`, for which the melting point lay in the range of 94 to 95 °C.

Regarding `COc1cc2c(c(Cl)c1Cl)C(=O)C(c1ccc(Br)cc1)C2` (stereo unspecified), the melting point is 202 to 203 °C.

Compound `COc1ccc(C2C=C3CCN(C)CC3C(CO)C2CO)cc1` (stereo unspecified) yielded a melting point of 169 to 171 °C.

The compound `CCC(CC)(CC(=O)Nc1cccc(/C=C/c2cccc(COCCCCc3ccc(C)cc3)n2)c1)C(=O)O` returned a melting point of 114 to 116 °C.

`CN(C)C(=O)COc1cccc(C(F)(F)F)c1` showed a melting point of 88.5 to 89.5 °C.

The compound `Cc1cc(=O)n(-c2cc(C(=O)OC(C)C)c(Cl)cc2F)c(=O)n1C(F)F` returned a melting point of 90 to 93 °C.

As for `O=C1CC=C(c2ccc(F)cc2)CC1`, the melting point was in the range of 44.5 to 46.5 °C.

`Clc1ccc2c(c1)CNC2` registered a melting point of 49 to 50 °C.

`Cc1cccc(-c2cc(O)c(SCc3ccccc3)c(=O)o2)c1` yielded a melting point of 137 to 138 °C.

The compound `OC(=S)Cc1ccc(Cl)cc1` yielded a melting point of 106 °C.

`CN1C(=O)C(c2ccc(OC(F)F)cc2)(c2ccc(F)c(CF)c2)N=C1N` (stereo unspecified) displayed a melting point of 70 to 73 °C.

With `O=C(O)C1=Cc2ccc(Oc3ccccc3)cc2OC1C(F)(F)F` (stereo unspecified), the melting point fell in the range of 180 to 181 °C.

The compound `O=C(O)c1ccc(C=CC(=O)N2CCc3c([nH]c4ccccc34)C2c2ccc3c(c2)CCO3)nc1` (stereo unspecified) displayed a melting point of 183 °C.

In turn, `Cc1c(N)cccc1-c1cn(C)c(=O)c(Nc2ccc(C3C(=O)N(C)CCN3C)cc2)n1` (stereo unspecified) came in with a melting point of 133 to 134 °C.

The compound `COc1ccc2cc(-c3cnc(-c4cn(C)c5ccccc45)o3)ccc2c1` gave a melting point of 187 to 189 °C.

On to `Nc1ccsc1C(=O)NC/C=C\COc1cc(CN2CCCCC2)ccn1`, for which the melting point lay in the range of 138 to 140 °C.

As to `OCc1cccc(C=CC2N=Cc3cc(Cl)ccc3S2)c1` (stereo unspecified), the melting point is 143 to 145 °C.

`ONCc1coc(-c2ccccc2)n1`: the melting point is 59 to 61 °C.

`O=C1CCC(c2ccc(-c3ccc(Cl)cc3)o2)O1` (stereo unspecified) registered a melting point of 100 to 101 °C.

Consider `Cc1c2c(c(C)c3c1NCC3)OC(C)(CI)C2` (stereo unspecified), for which the melting point was 90 to 91 °C.

With `O=C(O)CCC(=NO)c1ccc(-c2ccc(Cl)cc2F)cc1`, the melting point lay within 148 to 150 °C.

Regarding `c1cc2c(s1)CNCCS2`, the melting point lay within 138 to 139 °C.

In turn, `Cc1onc(-c2ccccc2)c1C(=O)NCCCCl` yielded a melting point of 122 to 124 °C.

For the compound `COc1ccc(C=C2c3ccccc3CCc3ccccc32)cc1N`, the melting point is 62.7 °C.

Compound `CN(C)C(=O)Sc1ccccc1C(=O)c1ccc(C#N)cc1` yielded a melting point of 102 °C.

Compound `Cc1cc(NC(=O)C(C)(O)COc2ccc(CCF)cc2)ccc1[N+](=O)[O-]` (stereo unspecified) registered a melting point of 102 to 105 °C.

In turn, `O=c1c(O)c(CCCCCO)oc2ccccc12` registered a melting point of 111 to 112 °C.

In the case of `Clc1ccc(-c2nc(Cc3nnn[nH]3)c(-c3ccccc3)s2)cc1`, the melting point lay in the range of 213 to 214 °C.

Consider `COc1ccc2c(c1)C(=O)NCC2`, for which the melting point was in the range of 90 to 93 °C.

As to `COc1cc(N)c(Cl)cc1-c1nc(-c2cccnc2)c(C)[nH]1`, the melting point lay within 178 to 180 °C.

In turn, `O=C1Nc2ccccc2N2C1CCC2c1cccc(Cl)c1` (stereo unspecified) returned a melting point of 210 °C.

Regarding `CCOC(=O)CCc1cn(Cc2ccc(C(=O)NCc3nc(-c4ccccc4)oc3C)cc2)nc1-c1ccccc1`, the melting point was 190 to 191 °C.

The compound `COC(=O)CCc1cc2ccccc2n1S(=O)(=O)c1ccccc1` gave a melting point of 95 to 99 °C.

`CC(C)(OCc1coc(-c2ccc(Cl)cc2)n1)C(=O)O` returned a melting point of 144 to 145 °C.

Turning to `CN(C)CCCOc1ccccc1CNc1ccccc1`, the melting point fell in the range of 67 to 69 °C.

`CCCCc1nn(-c2cc(NC(=O)CC)ccc2C(F)(F)F)c(=O)n1Cc1ccc(-c2ccccc2S(=O)(=O)NC(=O)c2ccccc2F)cc1F` came in with a melting point of 119 to 122 °C.

The compound `O=C(CCl)Nc1ccc(Sc2ccc([N+](=O)[O-])cc2)cc1` gave a melting point of 217 to 219 °C.

As to `COc1ccc2c(c1)c1c3c(c(-c4c(Cl)cccc4OC)cc1n2CCO)C(=O)NC3=O`, the melting point was 264 to 268 °C.

Compound `CC(C)(C)C(=O)OCN1C(=O)CN(CCN2CC(=O)N(COC(=O)C(C)(C)C)C(=O)C2)CC1=O` registered a melting point of 114 to 118 °C.

Consider `O=C(O)c1ccc(S(=O)(=O)Oc2ccc(-c3ccc(-c4c(C(=O)c5ccccc5)oc5ccccc45)cc3)cc2C2CCCC2)cc1O`, for which the melting point lay in the range of 105 to 108 °C.

With `Cc1cnc(-n2ccc(C(F)(F)F)n2)nc1Oc1csc(C(F)(F)F)c1`, the melting point is 113 to 115 °C.

For `NC(=O)CNC(=S)Nc1ccccc1`, the melting point was in the range of 150 to 152 °C.

`N=C(C1=C(O)C(=O)c2ccccc2C1=O)c1ccccc1` had a melting point of 258 to 259 °C.

Compound `CC(C)(C)Cc1ccc(C(=O)O)cc1` yielded a melting point of 191 to 193 °C.

In turn, `COc1cc(S(=O)(=O)N2CCNCC2)cc(OC)c1OC` returned a melting point of 131 to 133 °C.

For the compound `CCN1CCCc2cc(C(=O)c3ccc4c(c3)CCCN4CC)ccc21`, the melting point came to 120 °C.

On to `O=S(=O)(On1nnc2ccc(Cl)cc21)c1ccc(Cl)cc1`, for which the melting point is 125 to 127 °C.

In turn, `CC(C)N(CCC(c1cccs1)c1ccc(O)cc1O)C(C)C` (stereo unspecified) yielded a melting point of 102 to 109 °C.

`CS(=O)(=O)Nc1cc(C(O)CNCCCCCCOCCCc2ccc(Cl)s2)ccc1O` (stereo unspecified) showed a melting point of 85 to 87 °C.

In the case of `COc1cc(OC)c(-c2nc(N)sc2C)cc1Cl`, the melting point is 188 °C.

`Nc1nc(N)c2ncn(C3OC(CO)C(O)C3O)c2n1` (stereo unspecified) registered a melting point of 238 to 240 °C.

Compound `COc1cc2c3c(cccc3c1)C(=O)c1c(O)cccc1-2` returned a melting point of 207 to 208 °C.

`CCOC(=O)C(=O)c1csc(NC(=S)NC(=O)c2ccccc2)n1` came in with a melting point of 155 to 157 °C.

In turn, `CC(C)(C)COc1ccc([N+](=O)[O-])cc1C#N` had a melting point of 90 to 91 °C.

`COC(=O)C1=C(C)Nc2n[nH]cc2C1c1ccccc1Cl` (stereo unspecified): the melting point amounted to 235 °C.

Take `CCN1CCN(c2cccc3ccc(NC(=O)c4ccc(Cl)cc4)cc23)CC1`: the melting point lay in the range of 173 to 174 °C.

In turn, `O=C(C=Cc1ccc(NS(=O)(=O)c2ccccc2)cc1)NO` had a melting point of 189 to 191 °C.

In turn, `CC1Oc2ccc(C(=O)CCC(=O)O)cc2NC1=O` (stereo unspecified) had a melting point of 198 to 200 °C.

Consider `O=C(c1ccccc1)c1cnn2c1NCCC2c1ccncc1` (stereo unspecified), for which the melting point lay in the range of 186 to 189 °C.

In turn, `C=CCNC(=O)n1nc(O)cc1C` showed a melting point of 80 to 83 °C.

As for `CC(CCN(C)c1ccccc1)=NO`, the melting point was 46 to 49 °C.

Compound `COc1cc2ncc(C#N)c(Oc3cccc(Br)c3)c2cc1OC` showed a melting point of 187 to 190 °C.

The compound `C=C1C(=O)c2cc(C)ccc2OC1c1ccccc1` (stereo unspecified) came in with a melting point of 57 to 63 °C.

In the case of `Cc1cc(-c2ccc(C(F)(F)F)cc2)cn2c(-c3nc(-c4cnc(N)nc4)no3)cnc12`, the melting point worked out at 302 °C.

`CCOC(=O)NN=C(c1ccc(Cl)cc1)c1ccc(CS(C)=O)cc1` (stereo unspecified) registered a melting point of 65 to 70 °C.
